“Also recorded” adds a separate entry of the source. Read-outs that look alike come from different tables or passages of the source.
Test system: patients with cGVHD
Method: All responses were assessed by the investigators.
Reported Adverse Events. […] All-cause mortality data collected during the study were assessed for all enrolled participants. Disease progression related death was not reported as AE.
Number of Participants With Treatment-emergent Adverse Events (TEAEs), and Treatment-emergent Serious Adverse Events (TESAEs). […] TEAEs included both SAEs and non-SAEs. […] Analysis was performed on safety population which included all participants who received at least 1 dose of study medication.

CC(C)NC(=O)COc1cccc(-c2nc(Nc3ccc4[nH]ncc4c3)c3ccccc3n2)c1 [Belumosudil, 2-{3-[4-(1H-indazol-5-ylamino)-2-quinazolinyl]phenoxy}-N-(propan-2-yl) acetamide]
Pleural effusion: Affected/At Risk (%) (Cohort 3 400 mg QD): 1/21 (4.76%)
Pneumonia respiratory syncytial viral: # Events (Cohort 3 400 mg QD): 0
Pneumonia respiratory syncytial viral: Affected/At Risk (%) (Cohort 3 400 mg QD): 0/21 (0%)
Pneumonia: # Events (Cohort 3 400 mg QD): 0
Pneumonia: Affected/At Risk (%) (Cohort 3 400 mg QD): 0/21 (0%)
Pollakiuria: # Events (Cohort 3 400 mg QD): 0
Pollakiuria: Affected/At Risk (%) (Cohort 3 400 mg QD): 0/21 (0%)
Presyncope: # Events (Cohort 3 400 mg QD): 0
Presyncope: Affected/At Risk (%) (Cohort 3 400 mg QD): 0/21 (0%)
Productive cough: # Events (Cohort 3 400 mg QD): 2
Productive cough: Affected/At Risk (%) (Cohort 3 400 mg QD): 1/21 (4.76%)
Proteinuria: # Events (Cohort 3 400 mg QD): 0
Proteinuria: Affected/At Risk (%) (Cohort 3 400 mg QD): 0/21 (0%)
Pruritus: # Events (Cohort 3 400 mg QD): 0
Pruritus: Affected/At Risk (%) (Cohort 3 400 mg QD): 0/21 (0%)
Pseudomonas infection: # Events (Cohort 3 400 mg QD): 0
Pseudomonas infection: Affected/At Risk (%) (Cohort 3 400 mg QD): 0/21 (0%)
Pulmonary mass: # Events (Cohort 3 400 mg QD): 1
Pulmonary mass: Affected/At Risk (%) (Cohort 3 400 mg QD): 1/21 (4.76%)
Pyrexia: # Events (Cohort 3 400 mg QD): 3
Pyrexia: Affected/At Risk (%) (Cohort 3 400 mg QD): 3/21 (14.29%)
Rash erythematous: # Events (Cohort 3 400 mg QD): 0
Rash erythematous: Affected/At Risk (%) (Cohort 3 400 mg QD): 0/21 (0%)
Rash maculo-papular: # Events (Cohort 3 400 mg QD): 0
Rash maculo-papular: Affected/At Risk (%) (Cohort 3 400 mg QD): 0/21 (0%)
Rash pustular: # Events (Cohort 3 400 mg QD): 0
Rash pustular: Affected/At Risk (%) (Cohort 3 400 mg QD): 0/21 (0%)
Rash: # Events (Cohort 3 400 mg QD): 1
Rash: Affected/At Risk (%) (Cohort 3 400 mg QD): 1/21 (4.76%)
Red blood cells urine positive: # Events (Cohort 3 400 mg QD): 0
Red blood cells urine positive: Affected/At Risk (%) (Cohort 3 400 mg QD): 0/21 (0%)
Renal failure: # Events (Cohort 3 400 mg QD): 0
Renal failure: Affected/At Risk (%) (Cohort 3 400 mg QD): 0/21 (0%)
Respiratory syncytial virus infection: # Events (Cohort 3 400 mg QD): 3
Respiratory syncytial virus infection: Affected/At Risk (%) (Cohort 3 400 mg QD): 2/21 (9.52%)
Respiratory tract infection fungal: # Events (Cohort 3 400 mg QD): 0
Respiratory tract infection fungal: Affected/At Risk (%) (Cohort 3 400 mg QD): 0/21 (0%)
Respiratory tract infection: # Events (Cohort 3 400 mg QD): 0
Respiratory tract infection: Affected/At Risk (%) (Cohort 3 400 mg QD): 0/21 (0%)
Restless legs syndrome: # Events (Cohort 3 400 mg QD): 0
Restless legs syndrome: Affected/At Risk (%) (Cohort 3 400 mg QD): 0/21 (0%)
Rosacea: # Events (Cohort 3 400 mg QD): 0
Rosacea: Affected/At Risk (%) (Cohort 3 400 mg QD): 0/21 (0%)
SAE, No. (%) (Cohort 3 400 mg QD): 12 (57)
Sinus pain: # Events (Cohort 3 400 mg QD): 0
Sinus pain: Affected/At Risk (%) (Cohort 3 400 mg QD): 0/21 (0%)
Sinusitis: # Events (Cohort 3 400 mg QD): 1
Sinusitis: Affected/At Risk (%) (Cohort 3 400 mg QD): 1/21 (4.76%)
Skin abrasion: # Events (Cohort 3 400 mg QD): 2
Skin abrasion: Affected/At Risk (%) (Cohort 3 400 mg QD): 2/21 (9.52%)
Skin lesion: # Events (Cohort 3 400 mg QD): 0
Skin lesion: Affected/At Risk (%) (Cohort 3 400 mg QD): 0/21 (0%)
Skin papilloma: # Events (Cohort 3 400 mg QD): 0
Skin papilloma: Affected/At Risk (%) (Cohort 3 400 mg QD): 0/21 (0%)
Spinal compression fracture: # Events (Cohort 3 400 mg QD): 0
Spinal compression fracture: Affected/At Risk (%) (Cohort 3 400 mg QD): 0/21 (0%)
Squamous cell carcinoma of skin: # Events (Cohort 3 400 mg QD): 0
Squamous cell carcinoma of skin: Affected/At Risk (%) (Cohort 3 400 mg QD): 0/21 (0%)
Stomatitis: # Events (Cohort 3 400 mg QD): 1
Stomatitis: Affected/At Risk (%) (Cohort 3 400 mg QD): 1/21 (4.76%)
Superior vena cava syndrome: # Events (Cohort 3 400 mg QD): 0
Superior vena cava syndrome: Affected/At Risk (%) (Cohort 3 400 mg QD): 1/21 (4.76%)
TEAE, participants (%) (Cohort 3 400 mg QD): 20 (95%) participants
TESAE, participants (%) (Cohort 3 400 mg QD): 13 (62%) participants
Tachycardia: # Events (Cohort 3 400 mg QD): 2
Tachycardia: Affected/At Risk (%) (Cohort 3 400 mg QD): 2/21 (9.52%)
Tendonitis: # Events (Cohort 3 400 mg QD): 0
Tendonitis: Affected/At Risk (%) (Cohort 3 400 mg QD): 0/21 (0%)
Testicular pain: # Events (Cohort 3 400 mg QD): 0
Testicular pain: Affected/At Risk (%) (Cohort 3 400 mg QD): 0/21 (0%)
Testicular swelling: # Events (Cohort 3 400 mg QD): 0
Testicular swelling: Affected/At Risk (%) (Cohort 3 400 mg QD): 0/21 (0%)
Thoracic spinal stenosis: # Events (Cohort 3 400 mg QD): 0
Thoracic spinal stenosis: Affected/At Risk (%) (Cohort 3 400 mg QD): 0/21 (0%)
Thrombocytopenia: # Events (Cohort 3 400 mg QD): 1
Thrombocytopenia: Affected/At Risk (%) (Cohort 3 400 mg QD): 1/21 (4.76%)
Thrombocytosis: # Events (Cohort 3 400 mg QD): 0
Thrombocytosis: Affected/At Risk (%) (Cohort 3 400 mg QD): 0/21 (0%)
Tinea pedis: # Events (Cohort 3 400 mg QD): 0
Tinea pedis: Affected/At Risk (%) (Cohort 3 400 mg QD): 0/21 (0%)
Tooth fracture: # Events (Cohort 3 400 mg QD): 0
Tooth fracture: Affected/At Risk (%) (Cohort 3 400 mg QD): 0/21 (0%)
Total other adverse events: Affected/At Risk (%) (Cohort 3 400 mg QD): 19/21 (90.48%)
Transfusion reaction: # Events (Cohort 3 400 mg QD): 0
Transfusion reaction: Affected/At Risk (%) (Cohort 3 400 mg QD): 0/21 (0%)
Tremor: # Events (Cohort 3 400 mg QD): 4
Tremor: Affected/At Risk (%) (Cohort 3 400 mg QD): 3/21 (14.29%)
Type 2 diabetes mellitus: # Events (Cohort 3 400 mg QD): 0
Type 2 diabetes mellitus: Affected/At Risk (%) (Cohort 3 400 mg QD): 0/21 (0%)
Ulcerative keratitis: # Events (Cohort 3 400 mg QD): 0
Ulcerative keratitis: Affected/At Risk (%) (Cohort 3 400 mg QD): 0/21 (0%)
Upper respiratory tract infection: # Events (Cohort 3 400 mg QD): 9
Upper respiratory tract infection: Affected/At Risk (%) (Cohort 3 400 mg QD): 7/21 (33.33%)
Upper-airway cough syndrome: # Events (Cohort 3 400 mg QD): 1
Upper-airway cough syndrome: Affected/At Risk (%) (Cohort 3 400 mg QD): 1/21 (4.76%)
Urinary retention: # Events (Cohort 3 400 mg QD): 0
Urinary retention: Affected/At Risk (%) (Cohort 3 400 mg QD): 0/21 (0%)
Urinary tract infection: # Events (Cohort 3 400 mg QD): 0
Urinary tract infection: Affected/At Risk (%) (Cohort 3 400 mg QD): 0/21 (0%)
Urinary tract pain: # Events (Cohort 3 400 mg QD): 1
Urinary tract pain: Affected/At Risk (%) (Cohort 3 400 mg QD): 1/21 (4.76%)
Urine output decreased: # Events (Cohort 3 400 mg QD): 0
Urine output decreased: Affected/At Risk (%) (Cohort 3 400 mg QD): 0/21 (0%)
Vascular access complication: # Events (Cohort 3 400 mg QD): 0
Vascular access complication: Affected/At Risk (%) (Cohort 3 400 mg QD): 0/21 (0%)
Vertigo: # Events (Cohort 3 400 mg QD): 0
Vertigo: Affected/At Risk (%) (Cohort 3 400 mg QD): 0/21 (0%)
Vision blurred: # Events (Cohort 3 400 mg QD): 4
Vision blurred: Affected/At Risk (%) (Cohort 3 400 mg QD): 4/21 (19.05%)
Vomiting: # Events (Cohort 3 400 mg QD): 4
Vomiting: Affected/At Risk (%) (Cohort 3 400 mg QD): 4/21 (19.05%)
Weight decreased: # Events (Cohort 3 400 mg QD): 4
Weight decreased: Affected/At Risk (%) (Cohort 3 400 mg QD): 2/21 (9.52%)
Weight increased: # Events (Cohort 3 400 mg QD): 4
Weight increased: Affected/At Risk (%) (Cohort 3 400 mg QD): 1/21 (4.76%)
White blood cell count decreased: # Events (Cohort 3 400 mg QD): 2
White blood cell count decreased: Affected/At Risk (%) (Cohort 3 400 mg QD): 1/21 (4.76%)
cytomegalovirus (CMV) infection or reactivation (Example 1): No cases; also recorded: no reported CMV infection or reactivation
deaths attributed to belumosudil (Example 1): none of the deaths attributed to belumosudil
dose response with respect to observed AEs (Example 1): no dose response
median duration of dose interruption (Example 1): 10 days
median duration of dose reduction (Example 1): 97 days
patients who discontinued because of potentially drug-related AEs (Example 1): Three
patients with dose interruptions (Example 1): 41%
patients with dose reductions (Example 1): 9%
tolerability (Example 1): well-tolerated
grade ≥3 cytopenias (Example 1, N=54): 4%
grade ≥3 dyspnea (Example 1, N=54): 13%
grade ≥3 hyperglycemia (Example 1, N=54): 7%
grade ≥3 hypoxia (Example 1, N=54): 7%
grade ≥3 increased liver function tests (Example 1, N=54): 7%
patients with a grade ≥3 AE (Example 1, N=54): Sixty-one
patients with cough (Example 1, N=54): 22%
patients with diarrhea (Example 1, N=54): 33%
patients with dyspnea (Example 1, N=54): 30%
patients with fatigue (Example 1, N=54): 33%
patients with headache (Example 1, N=54): 24%
patients with hypertension (Example 1, N=54): 20%
patients with increased liver function tests (Example 1, N=54): 33%
patients with nausea (Example 1, N=54): 33%
patients with peripheral edema (Example 1, N=54): 24%
patients with serious AEs (Example 1, N=54): 43%
patients with upper respiratory infection (Example 1, N=54): 46%
serious AE dyspnea (Example 1, N=54): 7%
serious AE hypoxia (Example 1, N=54): 4%
serious AE influenza-like illness (Example 1, N=54): 4%
serious AE lung infection (Example 1, N=54): 6%
patients who died during the study (Example 1, all in cohort 3): Four
All grade ALT/AST increased, No. (%) (Total, N=54): 18 (33)
All grade Cough, No. (%) (Total, N=54): 12 (22)
All grade Diarrhea, No. (%) (Total, N=54): 18 (33)
All grade Dyspnea, No. (%) (Total, N=54): 16 (30)
All grade Fatigue, No. (%) (Total, N=54): 18 (33)
All grade Headache, No. (%) (Total, N=54): 13 (24)
All grade Hypertension, No. (%) (Total, N=54): 11 (20)
All grade Nausea, No. (%) (Total, N=54): 18 (33)
All grade Peripheral edema, No. (%) (Total, N=54): 13 (24)
All grade URI, No. (%) (Total, N=54): 25 (46)
Any AE, No. (%) (Total, N=54): 53 (98)
Death, No. (%) (Total, N=54): 2 (4)
Drug-related AE, No. (%) (Total, N=54): 30 (56)
Drug-related SAE, No. (%) (Total, N=54): 0
Grade ≥3 AE, No. (%) (Total, N=54): 33 (61)
Grade ≥3 ALT/AST increased, No. (%) (Total, N=54): 4 (7)
Grade ≥3 Anemia, No. (%) (Total, N=54): 3 (6)
Grade ≥3 Dyspnea, No. (%) (Total, N=54): 7 (13)
Grade ≥3 Hyperglycemia, No. (%) (Total, N=54): 4 (7)
Grade ≥3 Hypoxia, No. (%) (Total, N=54): 4 (7)
Grade ≥3 Lung infection or pneumonia, No. (%) (Total, N=54): 5 (9)
SAE, No. (%) (Total, N=54): 23 (43)
